Test results from ChEMBL document CHEMBL3227941, “3-Substituted adenines. In vitro enzyme inhibition and antiviral activity” (J Med Chem, 1979).

Tests used:
Type in all cases: functional
Conditions in all cases: route intraperitoneal
Rattus norvegicus [1] = experiment: Inhibition of dopamine-beta-hydroxylase in Wistar rat assessed as reduction of norepinephrine level in brain at 50 mg/kg, ip after 3 hrs (reference value: 0.67 +/- 0.02 ug/g)
Rattus norvegicus [2] = experiment: Inhibition of dopamine-beta-hydroxylase in Wistar rat assessed as reduction of norepinephrine level in heart at 50 mg/kg, ip after 3 hrs (reference value: 0.55 +/- 0.04 ug/g)
Rattus norvegicus [3] = experiment: Inhibition of dopamine-beta-hydroxylase in Wistar rat assessed as reduction of adrenal catecholamine level at 50 mg/kg, ip after 24 hrs assessed per adrenal pair (reference value: 10.6 +/- 0.7 ug)
Rattus norvegicus [4] = experiment: Inhibition of dopamine-beta-hydroxylase in Wistar rat assessed as reduction of norepinephrine level in heart at 50 mg/kg, ip after 24 hrs (reference value: 0.55 +/- 0.04 ug/g)
Rattus norvegicus [5] = experiment: Inhibition of dopamine-beta-hydroxylase in Wistar rat assessed as reduction of adrenal catecholamine level at 50 mg/kg, ip after 3 hrs assessed per adrenal pair (reference value: 10.6 +/- 0.7 ug)
Rattus norvegicus [6] = experiment: Inhibition of dopamine-beta-hydroxylase in Wistar rat assessed as reduction of adrenal catecholamine level at 50 mg/kg, ip after 6 hrs assessed per adrenal pair (reference value: 10.6 +/- 0.7 ug)
Rattus norvegicus [7] = experiment: Inhibition of dopamine-beta-hydroxylase in Wistar rat assessed as reduction of norepinephrine level in brain at 50 mg/kg, ip after 24 hrs (reference value: 0.67 +/- 0.02 ug/g)
Rattus norvegicus [8] = experiment: Inhibition of dopamine-beta-hydroxylase in Wistar rat assessed as reduction of norepinephrine level in brain at 50 mg/kg, ip after 6 hrs (reference value: 0.67 +/- 0.02 ug/g)
Rattus norvegicus [9] = experiment: Inhibition of dopamine-beta-hydroxylase in Wistar rat assessed as reduction of norepinephrine level in heart at 50 mg/kg, ip after 6 hrs (reference value: 0.55 +/- 0.04 ug/g)

Work on Br.CCCCCn1cnc(N)c2ncnc1-2.Cl yielded an Activity (Rattus norvegicus [1]) of 0.65 µg/g, an Activity (Rattus norvegicus [2]) of 0.59 µg/g and an Activity (Rattus norvegicus [3]) of 11.3 µg. The Activity (Rattus norvegicus [4]) was 0.56 µg/g, the Activity (Rattus norvegicus [5]) was 14.1 µg and the Activity (Rattus norvegicus [6]) was 12.1 µg. The Activity (Rattus norvegicus [7]) was 0.62 µg/g, the Activity (Rattus norvegicus [8]) was 0.62 µg/g and the Activity (Rattus norvegicus [9]) was 0.57 µg/g.
